From patent US6348214B1, “Materials and methods for making improved liposome compositions” (The Board of Trustees of the Illinois, priority 1996, dated 2002)
Ends that are not written are not given here.

Experiments:
[1] = test system: second-order arterioles in the cheek pouch of hamsters with spontaneous hypertension; test: Arteriolar diameter in hamster cheek pouch microcirculation, hamsters with spontaneous hypertension; assay type: in vivo
Method: (§1) Adult male hamsters with spontaneous hypertension (n=21) and age- and genetically-matched normotensive controls (n=20) were purchased from the Canadian Hybrid Farns, Halls Harbor, NS, Canada. In preparation, the animals were anesthetized interperitoneally with sodium pentobarbital (6 mg/100 g body weight) and a tracheostomy was performed to facilitate spontaneous breathing. The left femoral vein was cannulated to inject supplemental anesthesia (2 to 4 mg per 100 g body weight per hour) during the experiment. A catheter was inserted into the left femoral artery to record systemic arterial pressure and heart rate. Body temperature was monitored to maintain a constant 37-38° C. throughout the experiment using a heating pad.
(§2) In order to visualize microcirculation of the cheek pouch, previously described methods were employed [Gao, et al., Life Sci. 64: PL274-PL252 (1994); Mayhan and Joyner, Microvasc. Res. 28: 159-179 (1984); Mayban and Rubinstein, Biochem. Biophys. Res. Commun. 184:1372-1377 (1992); Raud, Acta Physiol. Scand. Suppl. 578:1-58 (1989); Rubinstein and Mayban, J. Lab. Clin. Med. 25:313-318 (1995); Rubinstein, et al., Am. J. Physiol. 261 (Heart Circ. Physiol. 30):111913-111918 (1991); and Suzuki, et al., Life Sci. 57:1451-1457 (1995)]. Briefly, the left cheek pouch was spread over a small plastic baseplate, and an incision was made in the outer skin to expose, the cheek pouch membrane. […]
(§3) Change in arteriolar diameter was determined as follows. […] The inner wall diameter of secondorder arterioles in the cheek pouch was measured from the video display of the microscope image using a videomicrometer (VIA-100, Boeckeler Instruments, Tucson, Ariz.). […]
VIP alone or encapsulated in liposomes was suffused for 7 minutes at a concentration of VIP of either 0.05 or 0.1 nmol peptide, and more than 30 minutes elapsed between subsequent applications of the peptide. Changes in arteriolar diameter before, during, and after topical application of VIP were determined as outlined above. […]

[2] = test system: hamsters with spontaneous hypertension; test: Mean arterial pressure after intravenous administration, hamsters with spontaneous hypertension; assay type: in vivo, hamster
Description: The provisional application further disclosed that a bolus intravenous injection of 1.0 nmol VIP-PEG-liposome compound acted to decrease mean arterial pressure (MAP) in hamsters with spontaneous hypertension. The results are reproduced herein as FIGS. 2A and 2B; FIG. 2A showing the actual decrease on arterial pressure and FIG. 2B showing the percent change. Data are mean values ± one standard error of the mean; an asterisk indicates statistically significant values compared to control with p value less than 0.05.
In examining the duration and efficacy of VIP in the two liposome preparations on mean arterial pressure, the following procedure was carried out. Adult mate hamsters with spontaneous hypertension (n=12) were obtained from the Canadian Hybrid Farms (Hall Harbour, Nova Scotia, Canada). Approximately 500 μl each of three test preparations, liposomes prepared by the second method above, VIP in aqueous solution, and liposomes without VIP, were injected administered over the course of 1 minute in the femoral vein. Continuous anesthesia of the animals limited the duration of the experiment to 6 hours.
Adult male golden Syrian hypertensive hamsters were prepared for intravital microscopy, cheek pouch microcirculation observed and measured, and mean arterial pressure determined, each technique as described above. […]

neutrophil = test: Neutrophil chemotaxis in two chamber apparatus (response to fmlp); assay type: cell-based; settings: FIG. 5
Description: Finally, as another experiment the effect of VIP-PEG-liposomes on neutrophil chemotaxis was examined using a two chamber apparatus routinely employed for in vitro analysis of chemotaxis. Neutrophil migration from the upper chamber into the lower chamber in response to formyl-methionyl-leucyl-phenylalanyl (fmlp) peptide in the lower chamber was initially established at a baseline control.

[3] = test system: second-order arterioles in the cheek pouch of normotensive hamsters; settings: 0.1 nmol VIP dissolved in saline; Suzuki et al. 1995; cited from earlier work
[4] = test system: second-order arterioles in the cheek pouch of normotensive hamsters; test: Arteriolar diameter in hamster cheek pouch microcirculation, normotensive hamsters; assay type: in vivo; settings: Example 1; 0.05 or 0.1 nmol VIP suffused for 7 minutes
Method: According to another experiment, normotensive hamsters were suffused onto the cheek pouch for 7 minutes with 0.1 nmol VIP-PEG-liposome composition which produced a significant increase in mean arterial diameter in situ. The results of this experiment are shown in FIG. 3 with data and significance indicated for results in FIGS. 2A and 2B above. […] Arterial diameter returned to baseline 9 minutes after suffusion was discontinued.
as §1, §2, §3

Compound | vasorelaxation, hypertensive versus normotensive hamsters ([1]; Example 1, endothelium independent vasodilator control in the cheek pouch) | effect on mean arterial pressure ([2]; Example 3, injected in the femoral vein over 1 minute) | effect on mean arterial pressure ([2]; Example 5, hypertensive hamsters) | neutrophil migration against fmlp in the lower chamber (neutrophil; test substance added with neutrophils in the upper chamber) | neutrophil migration against test substance in the lower chamber (neutrophil; test substance in lower chamber, no fmlp) | increase in arteriolar diameter [3] | effect on arteriolar diameter [4] | time after suffusion was stopped until return to baseline / persistence of vasodilation [4] [min] | time to maximal response from start of suffusion [4] [min] | effect on arteriolar diameter ([1]; Example 1, 0.05 or 0.1 nmol VIP suffused for 7 minutes) | effect on arteriolar diameter ([1]; Example 5, hypertensive hamsters, suffusion for 7 minutes)
O=[N+]([O-])OCC(CO[N+](=O)[O-])O[N+](=O)[O-] [nitroglycerin] | vasorelaxation of similar magnitude in both groups | – | – | – | – | – | – | – | – | – | –
vasoactive intestinal peptide (HSDAVFTDNYTRLRKQMAVKKYLNSILN; ends and bridges not checked; UniProt P01282 125-152, looked up) [VIP] | – | No significant effect on mean arterial pressure | no effect | significant migration was observed | negligible | approximately 10% | significant vasodilation | ≤ 1 | ≤ 4 | no significant effects on arteriolar diameter | no effects
